These results are taken from patent US20250257061A1, “COMPOSITIONS AND METHODS FOR TREATING CANCER AND REDUCING WNT MEDIATED EFFECTS” (StemSynergy Therapeutics, Inc., priority 2024, published 2025).

Where two headings read alike, the source gives them in different places.

For orientation: IC50 means the midpoint of a concentration-inhibition curve.

Test [1] has as its system Wnt-dependent HCT116 cell line. Description: Viability assay using Wnt-dependent HCT116 cell line (Cell Titer Glo). Conditions: HCT116 cells, read-out: Viability IC50 category. The class given is cell-based. On the procedure:
All compounds were tested using the human cell line HEK STF293. This cell line carries a Wnt reporter (TCF/LEF1 promoter), which drives expression of the firefly luciferase protein. The level of Wnt activity is directly correlated with the level of luciferase activity (determined using a simple assay). Compounds that inhibit Wnt signaling by reducing luciferase activity in these two cell lines are further tested biochemically. […] Compounds were further tested in a Viability assay using Wnt-dependent HCT116 cell line. HEK293 cells were seeded in a 6-well plate at approximately 8.0×10^5 cells (2 mL per well). On the first day, Wnt3a-conditioned media (1:1) and compounds (1:100) were added to the plated cells. The final concentrations of compounds were 1 μM, 500 nM, and 100 nM. Vehicle (DMSO) and a Wnt3a-conditioned media plus Vehicle samples were also prepared as controls. Lysates were collected (with non-denaturing lysis buffer) after 24 hours incubation, and protein concentrations determined by Bradford Assay. Immunoblotting with an anti-beta-catenin antibody (equivalent amounts of protein/lane for each condition) were subsequently performed to determine beta-catenin levels. HCT116 cells were seeded at 2,500 cells/well in a 96-well dish (Volume: 100 μL/well). On the second day, the 10 mM stock solution of each test compound was thawed at room temperature. Dilutions of the test compound were prepared in DMSO in a V-bottom 96-well plate. The stock compound solution, DMSO-diluted compound solutions, and DMSO were further diluted 500-fold in cell culture media, and 100 μL of the compound- or DMSO-containing cell culture media was added to each well of the cells. […] The final DMSO concentration was 0.1% in all wells. On the fifth day, 150 μL of media was removed from each well. 50 μL/well Cell Titer Glo reagent (Promega) was added to each well. The plate was shaken at 130 rpm for 15 minutes at room temperature, and the cell viability was determined using a luminescence plate reader. All compounds were tested using the human cell line HEK STF293. This cell line carries a Wnt reporter (TCF/LEF1 promoter), which drives expression of the firefly luciferase protein. The level of Wnt activity is directly correlated with the level of luciferase activity (determined using a simple assay). Compounds that inhibit Wnt signaling by reducing luciferase activity in these two cell lines are further tested biochemically. […] Compounds were further tested in a Viability assay using Wnt-dependent HCT116 cell line. HEK293 cells were seeded in a 6-well plate at approximately 8.0×10^5 cells (2 mL per well). On the first day, Wnt3a-conditioned media (1:1) and compounds (1:100) were added to the plated cells. The final concentrations of compounds were 1 μM, 500 nM, and 100 nM. Vehicle (DMSO) and a Wnt3a-conditioned media plus Vehicle samples were also prepared as controls. Lysates were collected (with non-denaturing lysis buffer) after 24 hours incubation, and protein concentrations determined by Bradford Assay. Immunoblotting with an anti-beta-catenin antibody (equivalent amounts of protein/lane for each condition) were subsequently performed to determine beta-catenin levels. HCT116 cells were seeded at 2,500 cells/well in a 96-well dish (Volume: 100 μL/well). On the second day, the 10 mM stock solution of each test compound was thawed at room temperature. Dilutions of the test compound were prepared in DMSO in a V-bottom 96-well plate. The stock compound solution, DMSO-diluted compound solutions, and DMSO were further diluted 500-fold in cell culture media, and 100 μL of the compound- or DMSO-containing cell culture media was added to each well of the cells. […] The final DMSO concentration was 0.1% in all wells. On the fifth day, 150 μL of media was removed from each well. 50 μL/well Cell Titer Glo reagent (Promega) was added to each well. The plate was shaken at 130 rpm for 15 minutes at room temperature, and the cell viability was determined using a luminescence plate reader. […]
In general terms: ATP-based viability assays read luminescence as a measure of living cells.

Test [2] concerns Wnt reporter (TCF/LEF1 promoter). Description: HEK STF293 Wnt reporter (TOPFlash) luciferase assay, Steady Glo normalised to Cell Titer. In kind it is cell-based, human. Conditions: HEK STF293 cells, Wnt3a-conditioned media, read-out: TOPFlash IC50 category. On the procedure:
All compounds were tested using the human cell line HEK STF293. This cell line carries a Wnt reporter (TCF/LEF1 promoter), which drives expression of the firefly luciferase protein. The level of Wnt activity is directly correlated with the level of luciferase activity (determined using a simple assay). Compounds that inhibit Wnt signaling by reducing luciferase activity in these two cell lines are further tested biochemically. […] Compounds were further tested in a Viability assay using Wnt-dependent HCT116 cell line. Compounds were prepared as 10 mM stocks for each compound in DMSO. Dilutions were prepared in a 96-well plate in DMSO. The stock dilutions are as follows: 10 mM, 1 mM, 100 μM, 10 μM, 100 nM, and 10 nM. Plates were sealed and stored at −20° C. […] On the first day, Wnt3a-conditioned media (1:1) were added along with diluted compounds (1:100). […] The final concentrations should therefore be 100 μM, 10 μM, 1 μM, 100 nM, 10 nM, and 1 nM. On the second day, the media was removed and 75 μL of Passive Lysis Buffer (Promega) is added to each well. The plate was shaken at 130 rpm for 15 minutes. For the Steady Glo assay, 45 μL of the lysis was removed and added to a white 96-well plate containing 45 μL/well of Steady Glo solution (Promega). For the Cell Titer assay, 25 μL of the lysis was transferred to a white 96-well plate containing 25 μL/well of Cell Titer solution (Promega). Both Steady Glo and Cell Titer assays were read with a luminescence plate reader. When determining EC50, the Steady Glo values were divided by the Cell Titer values to normalize for cell number. All compounds were tested using the human cell line HEK STF293. This cell line carries a Wnt reporter (TCF/LEF1 promoter), which drives expression of the firefly luciferase protein. The level of Wnt activity is directly correlated with the level of luciferase activity (determined using a simple assay). Compounds that inhibit Wnt signaling by reducing luciferase activity in these two cell lines are further tested biochemically. […] Compounds were further tested in a Viability assay using Wnt-dependent HCT116 cell line. Compounds were prepared as 10 mM stocks for each compound in DMSO. Dilutions were prepared in a 96-well plate in DMSO. The stock dilutions are as follows: 10 mM, 1 mM, 100 μM, 10 μM, 100 nM, and 10 nM. Plates were sealed and stored at −20° C. […] On the first day, Wnt3a-conditioned media (1:1) were added along with diluted compounds (1:100). […] The final concentrations should therefore be 100 μM, 10 μM, 1 μM, 100 nM, 10 nM, and 1 nM. On the second day, the media was removed and 75 μL of Passive Lysis Buffer (Promega) is added to each well. The plate was shaken at 130 rpm for 15 minutes. For the Steady Glo assay, 45 μL of the lysis was removed and added to a white 96-well plate containing 45 μL/well of Steady Glo solution (Promega). For the Cell Titer assay, 25 μL of the lysis was transferred to a white 96-well plate containing 25 μL/well of Cell Titer solution (Promega). Both Steady Glo and Cell Titer assays were read with a luminescence plate reader. When determining EC50, the Steady Glo values were divided by the Cell Titer values to normalize for cell number. All compounds were tested using the human cell line HEK STF293. This cell line carries a Wnt reporter (TCF/LEF1 promoter), which drives expression of the firefly luciferase protein. The level of Wnt activity is directly correlated with the level of luciferase activity (determined using a simple assay). Compounds that inhibit Wnt signaling by reducing luciferase activity in these two cell lines are further tested biochemically. […] Compounds were further tested in a Viability assay using Wnt-dependent HCT116 cell line. Compounds were prepared as 10 mM stocks for each compound in DMSO. Dilutions were prepared in a 96-well plate in DMSO. The stock dilutions are as follows: 10 mM, 1 mM, 100 μM, 10 μM, 100 nM, and 10 nM. Plates were sealed and stored at −20° C. […]

Where [3] appears, read: Examples for Formulae (IV), (V), (VI), and (VII).
Where [4] appears, read: Homo sapiens, HCT-116, Examples for Formulae (IV), (V), (VI), and (VII).
[5] abbreviates: Homo sapiens, STF/293, Examples for Formulae (IV), (V), (VI), and (VII).
[6] abbreviates: Homo sapiens, HCT-116, Examples for Formulae (I), (II), and (III).
Where [7] appears, read: Homo sapiens, STF/293, Examples for Formulae (I), (II), and (III).
Setting [8] is: Homo sapiens, HCT-116, Examples for Formulae (VIII), (IX), and (X).
[9] abbreviates: Homo sapiens, STF/293, Examples for Formulae (VIII), (IX), and (X).

As to `CN(c1nc(-c2ccc(S(C)(=O)=O)cc2)c(C(=O)Nc2nc(-c3ccccn3)cs2)o1)S(=O)(=O)c1ccc(C(F)(F)F)cc1` [Example 75], the figures for the half-maximal inhibitory concentration (IC50) in test [1] (setting [3]) and in test [2] (setting [3]) were < 200 nM and 200 to 500 nM, respectively.
In the same order, the values of `O=C(Nc1nc(-c2ccccn2)cs1)c1oc(C(F)F)nc1-c1ccc(F)cc1` [Example 33] are 200 to 500 nM and < 200 nM.
In the case of `CN(C(=O)c1ccccc1Cl)c1nc(C(F)(F)F)c(C(=O)Nc2nc(-c3ccccn3)cs2)o1` [Example 78], the half-inhibitory concentration (IC50) fell in the range of 1000 to 10000 nM in test [1] (setting [4]) and 500 to 1000 nM in test [2] (setting [5]).
As for `O=C(Nc1nc(-c2ccccn2)cs1)c1cn(-c2ccccc2)nc1-c1ccccc1` [Example 14], the concentration for half-maximal inhibition (IC50) in test [1] (setting [6]) was 200 to 500 nM; in test [2] (setting [7]), < 200 nM.
Consider `O=C(Nc1nc(-c2ccccn2)cs1)c1cccnc1Oc1ccc(C(F)(F)F)cc1` [Example 13], for which the IC50 in test [1] (setting [8]) lay in the range of 500 to 1000 nM; in test [2] (setting [9]) it was 200 to 500 nM.
In the same order, the values of `O=C(Nc1nc(-c2ccccn2)cs1)c1ccc(=O)n(-c2ccc(F)cc2)c1` [Example 2] are 500 to 1000 nM and 200 to 500 nM.
For the compound `Cc1ccc(Cn2nc(C)c(C(=O)Nc3nc(-c4ccccn4)cs3)c2C)cc1` [Example 10], the half-inhibitory concentration (IC50) lay within 1000 to 10000 nM in test [1] (setting [6]) and 500 to 1000 nM in test [2] (setting [7]).
In the case of `CN(c1ncc(C(=O)O)o1)S(=O)(=O)c1ccc(C(F)(F)F)cc1` [Example 43], the IC50 in test [1] (setting [3]) and in test [2] (setting [3]) was < 200 nM throughout.
Regarding `CCc1nc(-c2ccc(F)cc2)c(C(=O)Nc2nc(-c3ccccn3)cs2)o1` [Example 13], the concentration for half-maximal inhibition (IC50) in test [1] (setting [4]) and in test [2] (setting [5]) was < 200 nM throughout.
Consider `Cc1nc(N(C)S(=O)(=O)c2cccc(Cl)c2)oc1C(=O)Nc1nc(-c2ccccn2)cs1` [Example 51], for which the IC50 in test [1] (setting [4]) and in test [2] (setting [5]) was 500 to 1000 nM each time.
In the case of `Cc1nc(N(C)S(=O)(=O)c2ccc(C(F)(F)F)cc2)oc1C(=O)Nc1nc(-c2ccccn2)cs1` [Example 50], the IC50 in test [1] (setting [3]) and in test [2] (setting [3]) was 200 to 500 nM each time.
On to `COc1cccc(-c2noc(C)c2C(=O)Nc2nc(-c3ccccn3)cs2)c1` [Example 18], for which the half-inhibitory concentration (IC50) lay within 500 to 1000 nM in test [1] (setting [4]) and 200 to 500 nM in test [2] (setting [5]).
With `C#Cc1ccc(-c2nc(C)oc2C(=O)Nc2nc(-c3ccccn3)cs2)cc1` [Example 68], the IC50 in test [1] (setting [3]) and in test [2] (setting [3]) was < 200 nM each time.
Consider `Cc1nc(N(C)C(=O)c2ccccc2Cl)oc1C(=O)Nc1nc(-c2ccccn2)cs1` [Example 77], for which the concentration for half-maximal inhibition (IC50) was in the range of 500 to 1000 nM in test [1] (setting [3]) and 200 to 500 nM in test [2] (setting [3]).
On to `Cc1nc(-c2ccc(-c3nnc[nH]3)cc2)c(C(=O)Nc2nc(-c3ccccn3)cs2)o1` [Example 67], for which the half-inhibitory concentration (IC50) in test [1] (setting [4]) and in test [2] (setting [5]) was 200 to 500 nM throughout.
As for `Cc1nn(-c2ccc(F)cc2)c(C)c1C(=O)Nc1nc(-c2ccccn2)cs1` [Example 5], the IC50 in test [1] (setting [6]) and in test [2] (setting [7]) was 1000 to 10000 nM in each case.
For the compound `CN(c1nc(-c2ccc(S(C)(=O)=O)cc2)c(C(=O)Nc2nc(-c3ccccn3)cs2)o1)S(=O)(=O)c1ccc(F)cc1` [Example 74], the IC50 in test [1] (setting [3]) and in test [2] (setting [3]) was < 200 nM in each case.
Take `Cc1onc(-c2c(F)cccc2Cl)c1C(=O)Nc1nc(-c2ccccn2)cs1` [Example 14]: the IC50 in test [1] (setting [4]) was 200 to 500 nM; in test [2] (setting [5]), < 200 nM.
In the same order, the values of `O=C(Nc1nc(-c2ccccn2)cs1)c1oc(C2CC2)nc1-c1ccc(F)cc1` [Example 31] are 200 to 500 nM and < 200 nM.
Take `Cc1nc(-c2ccc(C#N)cc2)c(C(=O)Nc2nc(-c3ccccn3)cs2)o1` [Example 30]: the values for the IC50 in test [1] (setting [3]) and in test [2] (setting [3]) were 200 to 500 nM and < 200 nM, respectively.
Consider `Cc1nc(-c2ccc(Cl)cc2)c(C(=O)Nc2nc(-c3ccccn3)cs2)o1` [Example 9], for which the IC50 in test [1] (setting [4]) and in test [2] (setting [5]) was < 200 nM throughout.
With `Cc1onc(-c2ccc(Cl)cc2Cl)c1C(=O)Nc1nc(-c2ccccn2)cs1` [Example 17], the IC50 in test [1] (setting [4]) and in test [2] (setting [5]) was 200 to 500 nM in each case.
For `CN(c1nc(-c2ccc(Cl)cc2)c(C(=O)Nc2nc(-c3ccccn3)cs2)o1)S(=O)(=O)c1ccc(C(F)(F)F)cc1` [Example 73], the half-maximal inhibitory concentration (IC50) in test [1] (setting [3]) and in test [2] (setting [3]) was < 200 nM each time.
